Article PMC11855827, “High-Throughput Screening of Five Compound Libraries for Anthelmintic Activity and Toxicity Leads to the Discovery of Two Flavonoid Compounds” (International Journal of Molecular Sciences, 2025)
Where two headings read alike, the source gives them in different places.

Test system: C. elegans
Test: microbe, parasite or virus in culture
Conditions: Caenorhabditis elegans
[1] = 0 h, read-out: Percentage of motility inhibition 0 h, Table S2, C. elegans SS assay, 110 μM, 0 h, averages of 4 data points
[2] = 24 h, read-out: Percentage of motility inhibition 24 h, Table S2, C. elegans SS assay, 110 μM, 24 h, averages of 4 data points
[3] = 0 h, read-out: Percentage of motility inhibition 0 h
[4] = 24 h, read-out: Percentage of motility inhibition 24 h

## O=c1[nH]cnc2c1ncn2[C@H]1CC[C@@H](CO)O1 [Didanosine]
[1]
  inhibition at 110 µM: 22%
[2]
  inhibition at 110 µM: 7%

## NC(=O)c1ccccc1O [Salicylamide]
[1]
  inhibition at 110 µM: 2%
[2]
  inhibition at 110 µM: 0%

## O=c1cc(-c2ccccc2)oc2c(O)c(O)cc(O)c12 [Norwogonin]
[1]
  inhibition at 110 µM: 0%
[2]
  inhibition at 110 µM: 12%

## O=c1c(O[C@@H]2O[C@@H](CO)[C@H](O)[C@H]2O)c(-c2ccc(O)c(O)c2)oc2cc(O)cc(O)c12 [Avicularin]
[1]
  inhibition at 110 µM: 33%
[2]
  inhibition at 110 µM: 21%

## Nc1nc(NC2CC2)c2ncn([C@H]3C=C[C@@H](CO)C3)c2n1 [Abacavir]
[1]
  inhibition at 110 µM: 3%
[2]
  inhibition at 110 µM: 2%

## CC(C)=C[C@H]1C[C@](C)(O)[C@@H]2[C@H]3CC[C@@H]4[C@@]5(C)CC[C@H](O[C@@H]6O[C@H](CO)[C@@H](O)[C@H](O[C@@H]7O[C@H](CO)[C@@H](O)[C@H](O)[C@H]7O)[C@H]6O[C@@H]6O[C@@H](CO)[C@H](O)[C@H]6O)C(C)(C)[C@@H]5CC[C@@]4(C)[C@@]34CO[C@@]2(C4)O1 [Bacoside A3]
[1]
  inhibition at 110 µM: 3%
[2]
  inhibition at 110 µM: 0%

## C=C1C[C@@]23CC[C@H]4[C@@](C)(CCC[C@@]4(C)C(=O)O[C@@H]4O[C@H](CO)[C@@H](O)[C@H](O)[C@H]4O)[C@@H]2CC[C@]1(O[C@@H]1O[C@H](CO)[C@@H](O)[C@H](O)[C@H]1O[C@@H]1O[C@H](CO)[C@@H](O)[C@H](O)[C@H]1O)C3 [Stevioside]
[1]
  inhibition at 110 µM: 15%
[2]
  inhibition at 110 µM: 0%

## OC[C@H]1O[C@@H](O[C@@H]2OC=C[C@H]3[C@H](O)[C@@H]4O[C@]4(CO)[C@@H]23)[C@H](O)[C@@H](O)[C@@H]1O [Catalpol]
[1]
  inhibition at 110 µM: 0%
[2]
  inhibition at 110 µM: 16%

## C[C@@H]1CC[C@]2(C(=O)O[C@@H]3O[C@H](CO)[C@@H](O)[C@H](O)[C@H]3O)CC[C@]3(C)C(=CC[C@@H]4[C@@]5(C)CC[C@H](O)[C@@](C)(CO)[C@@H]5CC[C@]43C)[C@@H]2[C@]1(C)O [Pedunculoside]
[1]
  inhibition at 110 µM: 14%
[2]
  inhibition at 110 µM: 13%

## COc1ccc2c3c1O[C@H]1C[C@@H](O)CC[C@]31CCN(C)C2 [Lycoramine]
[1]
  inhibition at 110 µM: 0%
[2]
  inhibition at 110 µM: 0%

## C=C[C@@]1(C)CC(=O)[C@]2(O)[C@@]3(C)[C@@H](O)CCC(C)(C)[C@@H]3[C@H](O)[C@H](OC(C)=O)[C@@]2(C)O1 [Forskolin]
[1]
  inhibition at 110 µM: 0%
[2]
  inhibition at 110 µM: 2%

## CCn1cc(C(=O)O)c(=O)c2cnc(N3CCNCC3)nc21 [Pipemidic acid]
[1]
  inhibition at 110 µM: 31%
[2]
  inhibition at 110 µM: 14%

## CCc1nn(CCO)c(CC)c1Oc1cc(C#N)cc(C#N)c1 [Lersivirine]
[1]
  inhibition at 110 µM: 18%
[2]
  inhibition at 110 µM: 8%

## O=C(O)CCCCCCCC(=O)O [Azelaic acid]
[1]
  inhibition at 110 µM: 0%
[2]
  inhibition at 110 µM: 0%

## Cc1oc(=O)oc1CN1CCN(c2cc3c(cc2F)c(=O)c(C(=O)O)c2n3C(C)S2)CC1 (stereo not drawn) [Prulifloxacin]
[1]
  inhibition at 110 µM: 27%
[2]
  inhibition at 110 µM: 0%

## O=C(Nc1ccc(Cl)cc1)Nc1ccc(Cl)c(Cl)c1 [Triclocarban]
[1]
  inhibition at 110 µM: 15%
[2]
  inhibition at 110 µM: 20%

## N#C/C(=C1/SC[C@@H](c2ccc(Cl)cc2Cl)S1)n1ccnc1 [Luliconazole]
[1]
  inhibition at 110 µM: 3%
[2]
  inhibition at 110 µM: 7%

## Cc1c(C)[n+](Cc2ccccc2)cn1Cc1ccccc1 [Lepidiline A]
[1]
  inhibition at 110 µM: 5%
[2]
  inhibition at 110 µM: 14%

## C=C1C(=O)O[C@@H]2C[C@@]3(C)[C@@H](O)C[C@@H](O)C(=C)[C@@H]3C[C@H]12 [Granilin]
[1]
  inhibition at 110 µM: 4%
[2]
  inhibition at 110 µM: 13%

## CC1(C)CC[C@]2(C(=O)O)CC[C@]3(C)C(=CC[C@@H]4[C@@]5(C)CC[C@H](O)[C@@](C)(CO)[C@@H]5CC[C@]43C)[C@@H]2C1 [Hederagenin]
[3]
  inhibition at 110 µM: 30%
[4]
  inhibition at 110 µM: 21%

## CC(C)(C)NCC(O)c1cc(O)cc(O)c1 (stereo not drawn) [Terbutaline]
[1]
  inhibition at 110 µM: 9%
[2]
  inhibition at 110 µM: 2%

## CC[C@@]1(O)C(=O)OCc2c1cc1n(c2=O)Cc2cc3c([N+](=O)[O-])cccc3nc2-1 [Rubitecan]
[1]
  inhibition at 110 µM: 5%
[2]
  inhibition at 110 µM: 0%

## O=c1[nH]cnc2c1ncn2[C@@H]1O[C@H](CO)[C@@H](O)[C@H]1O [Inosine]
[1]
  inhibition at 110 µM: 34%
[2]
  inhibition at 110 µM: 10%

## Cc1cc(CCCOc2c(C)cc(-c3noc(C(F)(F)F)n3)cc2C)on1 [Pleconaril]
[1]
  inhibition at 110 µM: 4%
[2]
  inhibition at 110 µM: 14%

## CC(C)C1=C[C@H]2[C@@H](CC[C@]2(C)O)[C@](C)(O)CC1 [Alismoxide]
[1]
  inhibition at 110 µM: 2%
[2]
  inhibition at 110 µM: 0%

## O=C(O)c1ccccc1 [Benzoic acid]
[3]
  inhibition at 110 µM: 3%
[4]
  inhibition at 110 µM: 6%

## CC(C)=CCC[C@](C)(O)[C@H]1CC[C@]2(C)[C@@H]1[C@H](O)C[C@@H]1[C@@]3(C)CC[C@H](O)C(C)(C)[C@@H]3[C@@H](O[C@@H]3O[C@H](CO)[C@@H](O)[C@H](O)[C@H]3O[C@@H]3O[C@H](CO)[C@@H](O)[C@H](O)[C@H]3O)C[C@]12C [Ginsenoside Rf]
[1]
  inhibition at 110 µM: 0%
[2]
  inhibition at 110 µM: 0%

## C[C@H](CCC(=O)O)[C@H]1CC[C@H]2[C@@H]3[C@H](O)C[C@@H]4C[C@H](O)CC[C@]4(C)[C@H]3CC[C@]12C [Chenodeoxycholic Acid]
[1]
  inhibition at 110 µM: 0%
[2]
  inhibition at 110 µM: 5%

## CC(C)(C)[C@H]1CC[C@H](CC2=C(O)C(=O)c3ccccc3C2=O)CC1 [Buparvaquone]
[1]
  inhibition at 110 µM: 6%
[2]
  inhibition at 110 µM: 12%

## COc1cc(-c2cc(=O)c3c(O)cc(O)cc3o2)cc(OC)c1O [Tricin]
[1]
  inhibition at 110 µM: 31%
[2]
  inhibition at 110 µM: 2%

## C/C=C(/C)C(=O)O[C@H]1[C@@H]2[C@H](C)C(=O)O[C@@H]2C[C@@H](C)[C@@H]2C=CC(=O)[C@]21C [Brevilin A]
[3]
  inhibition at 110 µM: 0%
[4]
  inhibition at 110 µM: 0%

## Nc1ncnc2c1ncn2[C@@H]1O[C@H](CO)[C@@H](O)[C@H]1O [Adenosine]
[1]
  inhibition at 110 µM: 0%
[2]
  inhibition at 110 µM: 9%

## O=c1cc(-c2ccc(O)cc2)oc2cc(O[C@@H]3O[C@H](CO)[C@@H](O)[C@H](O)[C@H]3O[C@@H]3OC[C@](O)(CO)[C@H]3O)cc(O)c12 [Apiin]
[1]
  inhibition at 110 µM: 24%
[2]
  inhibition at 110 µM: 0%

## CC(C)(C)[C@]1(O)CC2OC(=O)CC23C(=O)OC2OC(=O)[C@H](O)C231 (stereo partly drawn) [Bilobalide]
[1]
  inhibition at 110 µM: 0%
[2]
  inhibition at 110 µM: 23%

## CCC[C@H](NC(=O)[C@@H]1[C@H]2CCC[C@H]2CN1C(=O)[C@@H](NC(=O)[C@@H](NC(=O)c1cnccn1)C1CCCCC1)C(C)(C)C)C(=O)C(=O)NC1CC1 [Telaprevir]
[1]
  inhibition at 110 µM: 7%
[2]
  inhibition at 110 µM: 0%

## COc1ccc(-c2cc(=O)c3c(O)c(OC)c(OC)cc3o2)cc1 [Salvigenin]
[1]
  inhibition at 110 µM: 22%
[2]
  inhibition at 110 µM: 3%

## CC1=C(C/C=C(\C)CCC[C@H](C)CCC[C@H](C)CCCC(C)C)C(=O)c2ccccc2C1=O [Vitamin K1]
[1]
  inhibition at 110 µM: 6%
[2]
  inhibition at 110 µM: 13%

## O=C(/C=C/c1ccc(O)cc1)OC[C@H]1O[C@@H](Oc2c(-c3ccc(O)cc3)oc3cc(O)cc(O)c3c2=O)[C@H](O)[C@@H](O)[C@@H]1O [Tiliroside]
[3]
  inhibition at 110 µM: 2%
[4]
  inhibition at 110 µM: 9%

## O=C(CCCCc1ccc2c(c1)OCO2)N1CCCCC1 [Tetrahydropiperine]
[1]
  inhibition at 110 µM: 0%
[2]
  inhibition at 110 µM: 0%

## C1CNCCN1 [Piperazine]
[1]
  inhibition at 110 µM: 3%
[2]
  inhibition at 110 µM: 0%

## C=C1C(=O)O[C@@]23[C@H]1CC[C@@H](C)[C@@H]2CC[C@@]1(C)O[C@@H]31 [Arteannuin B]
[1]
  inhibition at 110 µM: 13%
[2]
  inhibition at 110 µM: 11%

## CN(C)[C@@H]1C(O)=C(C(N)=O)C(=O)[C@@]2(O)C(O)=C3C(=O)c4c(O)cccc4[C@@](C)(O)[C@H]3C[C@@H]12 [Tetracycline]
[1]
  inhibition at 110 µM: 39%
[2]
  inhibition at 110 µM: 46%

## CC(=O)O[C@@H]1C[C@H]2C(C)(C)C(=O)C=C[C@]2(C)[C@H]2CC[C@@]3(C)[C@H](c4ccoc4)C(=O)[C@H]4O[C@]43[C@@]21C [Epoxyazadiradione]
[1]
  inhibition at 110 µM: 19%
[2]
  inhibition at 110 µM: 47%

## NCCCC[C@H](N)C(=O)O [L-Lysine]
[3]
  inhibition at 110 µM: 19%
[4]
  inhibition at 110 µM: 2%

## CC[C@@H]1/C=C(\C)C[C@H](C)C[C@H](OC)[C@H]2O[C@@](O)(C(=O)C(=O)N3CCCC[C@H]3C(=O)O[C@H](/C(C)=C/[C@@H]3CC[C@@H](O)[C@H](OC)C3)[C@H](C)[C@@H](O)CC1=O)[C@H](C)C[C@@H]2OC [Ascomycin]
[1]
  inhibition at 110 µM: 6%
[2]
  inhibition at 110 µM: 0%

## COc1cc(OC)cc(OC)c1 [1,3,5‐Trimethoxybenzene]
[1]
  inhibition at 110 µM: 1%
[2]
  inhibition at 110 µM: 25%

## Cc1noc(NS(=O)(=O)c2ccc(N)cc2)c1C [Sulfisoxazole]
[1]
  inhibition at 110 µM: 9%
[2]
  inhibition at 110 µM: 7%

## CC1(C)CC[C@]2(C(=O)O)CC[C@]3(C)C(=CC[C@@H]4[C@@]5(C)C[C@@H](O)[C@H](O)[C@@](C)(CO)[C@@H]5CC[C@]43C)[C@@H]2[C@@H]1O [Arjungenin]
[1]
  inhibition at 110 µM: 0%
[2]
  inhibition at 110 µM: 36%

## COC(=O)Nc1nc2ccc(C(=O)c3ccccc3)cc2[nH]1 [Mebendazole]
[1]
  inhibition at 110 µM: 18%
[2]
  inhibition at 110 µM: 37%

## Cc1cc(/C=C/C#N)cc(C)c1Nc1ccnc(Nc2ccc(C#N)cc2)n1 [Rilpivirine]
[1]
  inhibition at 110 µM: 32%
[2]
  inhibition at 110 µM: 20%

## C=C1C[C@@]23CC[C@H]4[C@@](C)(CCC[C@@]4(C)C(=O)O)[C@@H]2CC[C@]1(O)C3 [Steviol]
[1]
  inhibition at 110 µM: 13%
[2]
  inhibition at 110 µM: 34%

## O=c1c(O)c(-c2ccc(O)c(O)c2)oc2cc(O)cc(O)c12 [Quercetin]
[1]
  inhibition at 110 µM: 24%
[2]
  inhibition at 110 µM: 11%

## CC(C)[C@]12CC(=O)[C@H](C)[C@H]1C2 [α-Thujone]
[1]
  inhibition at 110 µM: 9%
[2]
  inhibition at 110 µM: 20%

## COc1cc(-c2coc3cc(O)c(OC)c(O)c3c2=O)cc(O)c1OC [Irigenin]
[1]
  inhibition at 110 µM: 14%
[2]
  inhibition at 110 µM: 3%
